The source made the active and inactive calls. The rule behind the calls is not given here.

Data set [1] has as its system Plasmodium falciparum. Put plainly: Antiplasmodial activity against asynchronous blood-stage Plasmodium falciparum HB3 infected in human RBC at 30 uM after 24 hrs by Malstat assay. The class given is functional, organism-based.
Data set [2] deals with Plasmodium falciparum. In words: Antiplasmodial activity against Plasmodium falciparum 3D7 clone infected in Anopheles gambiae Keele vector assessed as prevalence of […] infection at 30 uM. The class given is functional.
Data set [3] deals with Plasmodium falciparum. Put plainly: Antiplasmodial activity against asynchronous blood-stage Plasmodium falciparum HB3 infected in human RBC at 30 uM after 24 hrs by microscopy. It is filed as functional, organism-based.
Data set [4] has as its system Plasmodium falciparum. In words: Antiplasmodial activity against asynchronous blood-stage Plasmodium falciparum HB3 infected in human RBC at 30 uM after 15 hrs by Malstat assay. The class given is functional, organism-based.
Data set [5] has as its system Trypanosoma brucei brucei. Put plainly: […] activity against bloodstream form of Trypanosoma brucei 427. The class given is functional, organism-based.
Data set [6] has as its system Trypanosoma brucei brucei. Put plainly: Trypanocidal activity against bloodstream form of Trypanosoma brucei brucei 427 assessed as lysis half-time at 5.4 uM by alamar blue assay. The class given is functional, organism-based.
For data set [7], the system named is Plasmodium falciparum. In words: Antiplasmodial activity against asynchronous blood-stage Plasmodium falciparum HB3 infected in human RBC at 30 uM after 18 hrs by Malstat assay. The class given is functional, organism-based.
For another data set, the species on record is Homo sapiens. In words: Toxicity in human RBC assessed as induction of hemolysis at 1 to 30 uM.
Data set [8] concerns Plasmodium falciparum. In words: Antiplasmodial activity against asynchronous blood-stage Plasmodium falciparum HB3 infected in human RBC at 30 uM after 21 hrs by Malstat assay. The class given is functional, organism-based.

Consider H-LLIILRRRIRKQAHAHSK-OH, for which the outcome with Plasmodium falciparum [1] and in the data set on Plasmodium falciparum [3] was inactive. Also, the Activity in the data set with Plasmodium falciparum [2] is 44%.
As for `CC[C@H](C)[C@H](NC(=O)[C@H](CCCCN)NC(=O)[C@H](CCCCN)NC(=O)[C@H](C)NC(=O)[C@H](CC(C)C)NC(=O)[C@H](C)NC(=O)[C@H](C)NC(=O)[C@H](CC(C)C)NC(=O)[C@H](C)NC(=O)[C@H](CCCCN)NC(=O)[C@H](CC(C)C)NC(=O)[C@H](CC(N)=O)NC(=O)[C@@H](NC(=O)[C@H](CCCCN)NC(=O)CNC(=O)[C@H](CC(C)C)NC(=O)[C@H](CC(C)C)NC(=O)[C@H](Cc1ccc(O)cc1)NC(=O)CNC(=O)[C@H](C)N)[C@@H](C)CC)C(=O)N[C@@H](CC(C)C)C(=O)O`, the outcome (with Plasmodium falciparum [1]; in the data set with Plasmodium falciparum [4]; in [6]; in the data set on Plasmodium falciparum [3]; with Plasmodium falciparum [7]; in the data set with Plasmodium falciparum [8]) was Active. Besides, the Activity with Plasmodium falciparum [2] was 30%; in the data set listed under Homo sapiens it was “Non-toxic”. The compound further gave a half-inhibitory concentration (IC50) in data set [5] of 2.7 µM.

Source of the values: ChEMBL document CHEMBL1275472, “Cell-penetrating peptide TP10 shows broad-spectrum activity against both Plasmodium falciparum and Trypanosoma brucei brucei” (Antimicrob Agents Chemother, 2008).
